Each structure is given as a SMILES string. Where two headings read alike, the source gives them in different places. Where only a bound is given, the exact number is not on record here.

In assay [1] the test system is 4T1 cells. The experiment in a line: MTT cytotoxicity assay. The assay is classed as cell-based. Particulars: Mus musculus, read-out: IC50 4T1. On the procedure: (§1) The cytotoxicity of Rhein-DCA conjugate was performed on various cancer cell lines, including breast cancer (4T1 and MCF-7), cervical cancer (HeLa), and colorectal carcinoma (CT26) via 3-(4,5)-dimethylthiahiazo(-z-y1)-3,5-di-phenytetrazoliumromide (MTT) assay. […] Moreover, the cytotoxicity of these compounds (rhein, DCA, R + D and Rhein-DCA) for normal cells (293T) was lower than that of those tested cancer cells.
(§2) Mouse breast cancer 4T1 cells and Mouse colorectal carcinoma CT26 cells were purchased from Haixing Biosciences Co., Ltd (Jiangsu, P. R. China), and cultured in complete RPMI-1640 medium supplemented with 10% FBS and 1% Penicillin / Streptomycin in a cell incubator (37 °C in 95% air and 5% CO2 atmosphere). Human breast cancer MCF-7 cells, Human cervical carcinoma HeLa cells and Human embryonic kidney 293T cells were obtained from the China Center for Type Culture Collection (CCTCC). MCF-7 and HeLa cells were cultured in DMEM medium containing 10% FBS and 1% Penicillin / Streptomycin and then cultured in a cell incubator (37 °C in 95% air and 5% CO2 atmosphere).
(§3) The cytotoxicity of rhein, DCA, the mixture of rhein and DCA (R + D) and Rhein-DCA conjugate was evaluated on HeLa, MCF-7, CT26, 4T1 and 293T cell lines by MTT assay. Cells were seeded in 96-well plates at a density of 3 × 10^3 cells per well in the corresponding complete culture medium and cultured for 24 h. Then cells were incubated with 200 μL fresh medium containing the respective desired concentrations of rhein, DCA, R + D (with the concentrations being 100, 66.7, 44.4, 29.6, 19.8, 13.2, 8.8, 5.9, 3.9, 2.6, 1.7 and 1.2 μM, respectively) and Rhein-DCA conjugate (with the concentrations being 29.6, 19.8, 13.2, 8.8, 5.9, 3.9, 2.6, 1.7, 1.2, 0.8, 0.5 and 0.3 μM, respectively). After 72 h of incubation, 20 μL of MTT solution (5 mg/mL) was added to each well and the plates were cultured for another 4 h. The medium was carefully removed, and 110 μL of DMSO was added into per well to dissolve the formazan. The absorption densities at 590 nm were recorded with microplate reader. The quoted IC50 values were presented as the mean ± standard deviation.
For orientation: Tetrazolium dyes change colour on reduction, which living cells bring about.

The subject of assay [2] is CT26 cells. The assay is described as follows: MTT cytotoxicity assay. The conditions noted are these: Mus musculus, CT26, 72 h, read-out: IC50 CT26. The assay is classed as cell-based. On the procedure: as §1, §2, §3
Assay [3] relates to HeLa cells. The experiment in a line: MTT cytotoxicity assay. The assay is classed as cell-based. Particulars: Homo sapiens. The method, then: as §1, §2, §3
For assay [4], the system named is MCF-7 cells. The assay is described as follows: MTT cytotoxicity assay. The assay is classed as cell-based. Particulars: Homo sapiens, read-out: IC50 MCF-7. On the procedure:
as §1, §2, §3

Assay [5] concerns 4T1 cells. The experiment in a line: Mitochondrial membrane potential assay, JC-1. The assay is classed as cell-based, Mouse. Particulars: 6.25 μM, 24 h; for JC-1 green/red fluorescence (Δψm), in words: vs control. The source says: On the other hand, rhein could also disturb mitochondria, the camp of OXPHOS, to further prevent cancer cells from obtaining ATP by inducing pathological opening of mPTP [30]. We first detected mPTP on 4T1 cancer cells treated with indicated drugs according to the mPTP assay kit. The green fluorescence of Calcein AM in mitochondria would vanish when the quencher entered mitochondria through the opened mPTP channel. […] The sustained opening of mPTP along with the loss of Δψm. Thus, we further examined the Δψm of 4T1 cancer cells with JC-1 fluorescence dyes and tetramethylrhodamine, ethyl ester (TMRE) probe. The JC-1 dyes underwent a transition from aggregated red fluorescence to monomeric green fluorescence with mitochondrial depolarization in cells, and the increase of green/red fluorescence intensity ratio of JC-1 dyes indicated mitochondrial depolarization.
TMRE is a lipophilic cationic fluorescent probe (Ex = 550 nm, Em = 575 nm). The accumulation of TMRE within the mitochondria would reduce with the mitochondrial depolarization, resulting in a decrease in fluorescence intensity. […] The integrity of mitochondria is significant for mitochondrial bioenergy production. Given the influence of ETC, NADH dehydrogenase, ATP synthase and the decrease of Δψm, we speculated that the ATP production from OXPHOS would be hindered by Rhein-DCA conjugate. Mitochondrial bioenergetic processes of 4T1 cells was measured by oxygen consumption rate (OCR) to reflect the capability of OXPHOS.
JC-1: The Δψm was performed using the JC-1 assay with flow cytometry and confocal microscope. 4T1 cells were separately seeded into 6-well plates and confocal dishes at a density of 10 × 10^4 cells per well and cultured at 37 °C for 24 h. Cells were cultured with PBS, rhein (6.25 μM), DCA (6.25 μM), R + D (6.25 μM + 6.25 μM) and Rhein-DCA (6.25 μM) for another 24 h. […] Samples were then immediately detected by flow cytometry and imaged with confocal microscope.

Assay [6] relates to 4T1 cells. The assay is described as follows: Intracellular ATP detection. Format: cell-based, Mouse. The conditions noted are these: 6.25 μM, vs control. On the procedure:
Rhein-DCA conjugate achieved synergetic fatal energy depletion in tumor cells.
The intracellular ATP content was measured with PhosphoWorks™ Colorimetric ATP Assay Kit. Specifically, 4T1 cells and 293T cells were seeded in 12-well plates at a density of 2 × 10^5 cells per well and further cultured for 24 h at 37 °C in an atmosphere of 95% air and 5% CO2. For the control group, the culture medium was replaced with fresh medium. For the rhein, DCA, R + D, and Rhein-DCA groups, the medium was replaced with fresh medium containing the indicated drugs at a concentration of 6.25 μM. It should be noted that in the Rhein-DCA + CsA group, the cells were pretreated with CsA (2.5 μM) for 1 h at 37 °C before being cultured with Rhein-DCA. The cells were collected and suspended in 80 μL triton-X-100 (1% in PBS) to obtain cell lysates by twice freeze-thaw. Then the supernatant was collected after centrifugation at 9391 G for 10 min for subsequent analysis. Finally, 50 μL of supernatant was separately mixed evenly with 50 μL ATP working solution and the mixture was incubated for 30 min at room temperature. The absorbance at 570 nm was monitored with microplate reader.

The mark [7] stands for this setting: 4T1, 72 h treatment, MTT, mean ± S.D., n = 3.
Where [8] appears, read: 72 h treatment, MTT, mean ± S.D., n = 3.
Where [9] appears, read: 72 h treatment, MTT, mean ± S.D., n = 3, read-out: IC50 HeLa.
The mark [10] stands for this setting: MCF7, 72 h treatment, MTT, mean ± S.D., n = 3.

A word on the IC50: it is the midpoint of a concentration-inhibition curve. With `O=C(OCCOC(=O)C(Cl)Cl)c1cc(O)c2c(c1)C(=O)c1cccc(O)c1C2=O` [Rhein-DCA], the IC50 in assay [1] (setting [7]) stood at 1.7 µM; in assay [2] (setting [8]) it was 2.7 ± 0.1 µM; in assay [3] (setting [9]), 6.7 µM; in assay [4] (setting [10]) it was 3.9 µM. Besides, in assay [5], the “JC-1 green/red ratio relative to control group” value is “about 7 fold”. For the same compound, the “intracellular ATP amount” value in assay [6] is “significant decrease”.
As to `O=C(O)C(Cl)Cl` [DCA, Dichloroacetate], the IC50 was > 100 µM in assay [1] (4T1, 72 h); > 100 µM in assay [2]; > 100 µM in assay [3] (72 h, read-out: IC50 HeLa); > 100 µM in assay [4] (MCF7, 72 h). For the same compound, in assay [5], the “JC-1 green/red fluorescence (Δψm), in words” value is “did not affect”. Moreover, the “intracellular ATP amount” value in assay [6] was “slight increase”.
Consider `O=C(O)c1cc(O)c2c(c1)C(=O)c1cccc(O)c1C2=O` [Rhein, 4,5-dihydroxyanthraquinone-2-carboxylic acid], for which the IC50 worked out at 41.2 ± 1 µM in assay [1] (setting [7]), 42.1 ± 3.3 µM in assay [2] (setting [8]), 68.3 ± 5.1 µM in assay [3] (setting [9]) and 79.9 ± 2.3 µM in assay [4] (setting [10]). The “JC-1 green/red fluorescence (Δψm), in words” value in assay [5] is “relatively increased green/red ratio”. In assay [6], the “intracellular ATP amount” value was “decrease”.

These data come from article PMC12036875, “Mitochondria-targeting natural product rhein conjugated with dichloroacetate as the dual inhibitor of glycolysis and oxidative phosphorylation to off energize cancer cells and induce ROS storm” (Theranostics, 2025).
